{
  "source": "paper PMC8111499",
  "about": "“GW117: A novel serotonin (5‐HT2C) receptor antagonist and melatonin (MT1/MT2) receptor agonist with potential antidepressant‐like activity in rodents” (CNS Neuroscience & Therapeutics, 2021)",
  "key": {"[1]": {"biological_target": "T1, MT2 receptor (Homo sapiens, UniProt P49286)", "T1 construct": "purchased Perkin‐Elmer ES‐621", "T1 sequence (P49286 1-362)": "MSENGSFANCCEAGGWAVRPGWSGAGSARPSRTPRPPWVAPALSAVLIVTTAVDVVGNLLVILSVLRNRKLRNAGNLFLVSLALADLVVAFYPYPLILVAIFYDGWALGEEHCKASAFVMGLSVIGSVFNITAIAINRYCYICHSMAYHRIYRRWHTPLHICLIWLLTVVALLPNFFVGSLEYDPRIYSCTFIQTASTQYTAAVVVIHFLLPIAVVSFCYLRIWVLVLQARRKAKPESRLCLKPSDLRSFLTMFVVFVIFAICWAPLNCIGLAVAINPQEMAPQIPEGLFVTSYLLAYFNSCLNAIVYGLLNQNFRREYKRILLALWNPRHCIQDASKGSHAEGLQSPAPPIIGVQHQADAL", "test": "MT2 receptor binding assay ([3H]‐melatonin competition)", "conditions": "mean ± SEM, three independent experiments", "method": "(§1) The stably transfected 5‐HT2C receptor HEK293 cell line was prepared using a nucleus‐cytoplasm‐membrane preparation kit (Applagin Technologies Inc.). Briefly, cells were harvested at 4°C, 110 00 × g and centrifugation for 5 min. Homogenize pellets in the assay buffer (50 mM Tris‐HCl buffer containing 120 mM NaCl and 5 mM KCl, pH 7.4) and then centrifuged twice at 4°C, 36,000 × g for 15 min. Finally, pellets were re‐suspended in assay buffer and stored it at −80°C until it is used for in vitro experiments.\n(§2) Receptor membrane protein, MT1 or MT2 (10 μl), was added to all pipes. Non‐specific binding was determined by the presence of unlabeled 10 µM melatonin and pre‐reacted for 30 min. In test tubes, 30 μl of test drugs (MT1: concentration, 10^−4–10^−10 M; MT2: concentration, 10^−4–10^−11 M) was added. Additionally, 40 μl [^3H]‐melatonin was added to all tubes. The volume in all reaction tubes was made up to 300 μl with Tris‐HCl buffer (50 mM, pH 7.4). Reactions were performed at 25°C for 1 h. The mixture was then spotted onto a type 49 glass fiber filter paper, suction filtered under vacuum, rinsed three times with 2 ml ice‐cold Tris‐HCl buffer (50 mM, pH 7.4), and dried by suction. […] Finally, 1 ml of scintillation fluid was added and then the radioactive intensity measured by liquid scintillation counting."}, "[2]": {"tested_on": "mice", "test": "Locomotor activity in mice", "format": "in vivo, ICR mice", "conditions": "for Locomotor activity, Crossing number / Locomotor activity, Rearing number: Mice, mean ± S.E.M.", "method": "In order to confirm whether GW117 has an antidepressant activity, we used spontaneous activities in mice and rats to determine whether GW117 affects the central system. 64 ICR mice were randomly allocation to five therapy groups ([…]): control group, 5 mg/kg GW117, 10 mg/kg GW117, 20 mg/kg GW117, and 40 mg/kg GW117. All rats and mice received one administration (p.o.). After sixty minutes of gavage administration, each mouse or rat was located in the corner of an open field chamber (36 × 29 × 23 cm for mice; 76 × 76 × 46 cm for rats) to adapt to 5 min. The numbers of crossings and rearings were recorded during the subsequent 5 min."}, "[3]": {"tested_on": "mice", "test": "Tail suspension test in mice", "format": "in vivo, ICR mice", "method": "The tail suspension test (TST) was conducted as described earlier. ^28 , ^29 Eighty naive mice were randomly divided into eight treatment groups (n = 10/group). All mice received a single dose of the drug (p.o.). After 60 min of gavage administration, mice were suspended from the top of the apparatus (25 × 25 × 35 cm) using tape about 1 cm from the tail tip. The duration of immobility was recorded in the last 4 min for a total of 6 min. When mice are passively suspended immobile, they are judged to be stationary."}, "[4]": {"biological_target": "T2, MT1 receptor (Homo sapiens, UniProt P48039)", "T2 construct": "purchased Perkin‐Elmer ES‐620", "T2 sequence (P48039 whole entry)": "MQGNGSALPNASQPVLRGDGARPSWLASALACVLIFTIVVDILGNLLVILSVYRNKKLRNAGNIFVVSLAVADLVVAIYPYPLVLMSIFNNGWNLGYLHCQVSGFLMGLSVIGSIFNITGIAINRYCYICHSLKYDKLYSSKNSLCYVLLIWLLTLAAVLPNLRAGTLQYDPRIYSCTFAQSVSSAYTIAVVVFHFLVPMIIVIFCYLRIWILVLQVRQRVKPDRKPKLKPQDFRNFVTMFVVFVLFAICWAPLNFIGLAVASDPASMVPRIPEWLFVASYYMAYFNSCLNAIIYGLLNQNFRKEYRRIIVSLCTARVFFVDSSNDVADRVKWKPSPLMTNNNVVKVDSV", "test": "MT1 receptor binding assay ([3H]‐melatonin competition)", "conditions": "mean ± SEM, three independent experiments", "method": "as §1, §2"}, "[5]": {"biological_target": "T3, 5‐HT2C receptor from rat hippocampal membranes (Rattus norvegicus, UniProt P08909)", "T3 construct": "5‐HT2C receptor from rat hippocampal membranes (C‐D); from tissue; host or cells: rat hippocampus", "T3 sequence (P08909 33-460)": "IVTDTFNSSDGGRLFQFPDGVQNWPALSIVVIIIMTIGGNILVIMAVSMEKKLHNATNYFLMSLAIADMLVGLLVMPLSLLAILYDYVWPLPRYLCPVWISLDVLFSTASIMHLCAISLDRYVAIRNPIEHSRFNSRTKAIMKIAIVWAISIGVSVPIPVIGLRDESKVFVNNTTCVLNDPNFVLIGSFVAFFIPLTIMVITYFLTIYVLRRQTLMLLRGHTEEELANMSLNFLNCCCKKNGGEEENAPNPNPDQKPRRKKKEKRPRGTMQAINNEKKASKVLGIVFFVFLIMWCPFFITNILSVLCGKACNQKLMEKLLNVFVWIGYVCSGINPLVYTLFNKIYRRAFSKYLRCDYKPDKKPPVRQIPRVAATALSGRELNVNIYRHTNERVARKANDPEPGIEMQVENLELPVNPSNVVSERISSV", "test": "[35S]‐GTPγS and [3H]PIP assays, blockade of 5‐HT activation", "format": "biochemical", "conditions": "10 nM 5‐HT", "method": "This experiment was mentioned earlier. ^27 In short, HEK293 cell membrane stably expressing human 5‐HT2C receptors or rat hippocampal tissue membrane or MT1/MT2 receptors was re‐suspended in buffer (50 mmol/L Tris, 100 mmol/L NaCl, 5 mmol/L MgCl2·6H2O, 0.1 mmol/L EDTA‐Na2·6H2O, 0.2 mmol/L EGTA, pH 7.4) and incubated with the test compound (100 μM GDP, 0.2 nM [^35S]‐GTP, or [^3H]PIP) for 60 min at 28℃. At the end of the experiment, Whatman GF/C filters pre‐soaked with distilled water were used for rapid filtration followed by washing with 5 ml of ice‐cold Tris buffer. Determination of non‐specific binding in the presence of GTPγS and radioactivity was measured by liquid scintillation counting. Calculation of the concentration produces a half‐maximal effect (EC50) and the maximal increase above the baseline value."}},
  "data": [
    {"smiles": "[2H]C([2H])([2H])Oc1cc2c(CCNC(C)=O)cccc2cc1Cl", "note": "[GW117]", "values": [
      {"measurement": "Ki", "setting": "[1]", "result": "54 ± 7.31", "unit": "nM"},
      {"measurement": "Locomotor activity, Crossing number", "setting": "[2]; 5 mg/kg p.o.", "result": "86.8 ± 4.4"},
      {"measurement": "Locomotor activity, Rearing number", "setting": "[2]; 5 mg/kg p.o.", "result": "22.7 ± 1.8"},
      {"measurement": "Locomotor activity, Crossing number", "setting": "[2]; 10 mg/kg p.o.", "result": "80.1 ± 4.8"},
      {"measurement": "Locomotor activity, Rearing number", "setting": "[2]; 10 mg/kg p.o.", "result": "22.6 ± 2.1"},
      {"measurement": "Locomotor activity, Rearing number", "setting": "[2]; 20 mg/kg p.o.", "result": "20.7 ± 1.5"},
      {"measurement": "Locomotor activity, Crossing number", "setting": "[2]; 40 mg/kg p.o.", "result": "86.3 ± 4.4"},
      {"measurement": "Locomotor activity, Rearing number", "setting": "[2]; 40 mg/kg p.o.", "result": "21.3 ± 1.4"},
      {"measurement": "effect on number of crossings and rearings in the spontaneous activity test", "setting": "[2]; mice, 5, 10, 20, or 40 mg/kg by gavage", "result": "had no effect"},
      {"measurement": "immobility time in TST", "setting": "[3]; acute, p.o., 20 and 40 mg/kg, vs. vehicle", "result": "markedly reduced the immobility time"},
      {"measurement": "minimal effective dose in TST", "setting": "[3]; immobility time", "result": 20, "unit": "mg/kg"},
      {"measurement": "Ki", "setting": "[4]", "result": "0.12 ± 0.06", "unit": "nM"},
      {"measurement": "blockade of activation of [35S]‐GTPγS binding and [3H]PIP released by 5‐HT", "setting": "[5]", "result": "dose‐dependently blocked"}
    ]}
  ]
}
